Test [1] concerns the target DNA topoisomerase 2-alpha (Homo sapiens) (UniProt P11388). Nature of the test: Inhibition of strand rejoining activity of human DNA topoisomerase 2 assessed as protein-DNA complex formation at 10 uM by cell-based assay. Details: scale not given: the % may be the effect or the level left.
For test [2], the system named is KB. As to the kind of experiment: Cytotoxicity against human KB cells assessed as reduction in cell number after 3 days. It is filed as functional. The settings on record: 72 h, read-out: ID50 (the source's name).
For test [3], the target named is DNA topoisomerase 2-alpha (Homo sapiens) (UniProt P11388). Nature of the test: Inhibition of human DNA topoisomerase 2.
Chain of DNA topoisomerase 2-alpha (Homo sapiens) (P11388 whole entry): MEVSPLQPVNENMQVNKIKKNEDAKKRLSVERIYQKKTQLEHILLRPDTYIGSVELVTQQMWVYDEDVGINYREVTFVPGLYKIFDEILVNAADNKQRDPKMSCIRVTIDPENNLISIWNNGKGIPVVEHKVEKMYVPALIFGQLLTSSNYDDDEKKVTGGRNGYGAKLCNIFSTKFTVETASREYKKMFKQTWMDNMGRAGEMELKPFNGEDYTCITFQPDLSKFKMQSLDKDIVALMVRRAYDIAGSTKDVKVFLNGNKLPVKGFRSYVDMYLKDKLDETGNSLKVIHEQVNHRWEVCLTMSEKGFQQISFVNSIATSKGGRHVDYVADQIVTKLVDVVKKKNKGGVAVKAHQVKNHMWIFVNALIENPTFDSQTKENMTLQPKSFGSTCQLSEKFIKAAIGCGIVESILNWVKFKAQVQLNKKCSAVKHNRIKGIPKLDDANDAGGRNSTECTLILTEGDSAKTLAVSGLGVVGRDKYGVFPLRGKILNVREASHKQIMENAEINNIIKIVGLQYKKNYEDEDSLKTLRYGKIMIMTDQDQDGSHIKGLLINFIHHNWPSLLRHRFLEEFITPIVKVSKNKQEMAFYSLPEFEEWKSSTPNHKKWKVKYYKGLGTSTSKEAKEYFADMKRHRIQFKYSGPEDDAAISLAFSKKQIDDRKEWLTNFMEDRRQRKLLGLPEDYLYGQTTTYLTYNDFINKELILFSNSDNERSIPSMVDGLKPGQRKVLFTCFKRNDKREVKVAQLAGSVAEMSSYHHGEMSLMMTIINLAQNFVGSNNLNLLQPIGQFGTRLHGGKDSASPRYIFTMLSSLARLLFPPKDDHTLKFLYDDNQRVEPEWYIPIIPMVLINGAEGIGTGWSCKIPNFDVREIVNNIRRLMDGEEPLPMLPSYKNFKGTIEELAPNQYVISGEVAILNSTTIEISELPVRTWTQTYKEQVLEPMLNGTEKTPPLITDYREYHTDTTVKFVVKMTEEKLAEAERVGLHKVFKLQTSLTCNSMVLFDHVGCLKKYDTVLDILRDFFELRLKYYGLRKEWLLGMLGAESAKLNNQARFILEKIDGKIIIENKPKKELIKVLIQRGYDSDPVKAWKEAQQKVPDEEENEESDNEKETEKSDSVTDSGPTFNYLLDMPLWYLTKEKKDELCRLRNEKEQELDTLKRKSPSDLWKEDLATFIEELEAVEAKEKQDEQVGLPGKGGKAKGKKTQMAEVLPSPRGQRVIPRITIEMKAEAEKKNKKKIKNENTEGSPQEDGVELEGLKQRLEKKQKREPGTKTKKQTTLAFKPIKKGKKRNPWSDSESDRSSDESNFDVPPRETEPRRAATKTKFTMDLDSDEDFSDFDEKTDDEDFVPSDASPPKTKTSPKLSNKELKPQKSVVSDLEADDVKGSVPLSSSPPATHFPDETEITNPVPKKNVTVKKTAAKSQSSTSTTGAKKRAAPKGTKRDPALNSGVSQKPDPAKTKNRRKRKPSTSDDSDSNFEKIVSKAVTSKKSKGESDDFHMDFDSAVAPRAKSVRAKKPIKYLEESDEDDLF
Test [4] relates to EMT6. Nature of the test: Ratio of cytotoxicity for normally oxygenated mouse EMT6 cells over hypoxic mouse EMT6 cells. Type of test: functional.

Bounds are passed on as bounds.

With `COc1cc([C@@H]2c3cc4c(cc3[C@@H](Nc3cc(C(F)(F)F)cc(C(F)(F)F)c3)[C@H]3COC(=O)[C@H]23)OCO4)cc(OC)c1O`, the Activity in test [1] was determined as 21%. The IC50 in test [2] is 3.4 µM. Besides, the ID50 in test [3] is more than 100 µM.

As for `COc1cc([C@@H]2c3cc4c(cc3[C@@H](Nc3cccc([N+](=O)[O-])c3)[C@H]3COC(=O)[C@H]23)OCO4)cc(OC)c1O`, the Activity in test [1] was 230%. The IC50 in test [2] is 1 µM. Also, the ID50 in test [3] worked out at 50 µM.

Take `CCOC(=O)c1ccc(N[C@@H]2c3cc4c(cc3[C@@H](c3cc(OC)c(O)c(OC)c3)[C@H]3C(=O)OC[C@@H]32)OCO4)cc1`: the Activity in test [1] came out at 207%. The IC50 in test [2] came out at 0.84 µM. This compound also displayed an ID50 in test [3] of 5 µM.

With `COc1cc([C@@H]2c3cc4c(cc3[C@@H](Nc3ccc(C#N)cc3)[C@H]3COC(=O)[C@H]23)OCO4)cc(OC)c1O`, the Activity in test [1] was 211%. The IC50 in test [2] came out at 0.6 µM.

`COc1cc([C@@H]2c3cc4c(cc3[C@@H](Nc3ccccc3)[C@H]3COC(=O)[C@H]23)OCO4)cc(OC)c1O`: the Activity in test [1] was found to be 243%. For the same compound, in test [2], the IC50 amounted to 0.7 µM. In test [3], the ID50 was 25 µM.

For the compound `COc1cc([C@@H]2c3cc4c(cc3[C@@H](Nc3ccc(F)cc3)[C@H]3COC(=O)[C@H]23)OCO4)cc(OC)c1O`, the Activity in test [1] was found to be 2.13%. In addition, the IC50 in test [2] turned out to be 0.2 µM. This compound also displayed an ID50 in test [3] of 5 µM.

With `COc1cc([C@@H]2c3cc4c(cc3[C@@H](Nc3cncc5ccccc35)[C@H]3COC(=O)[C@H]23)OCO4)cc(OC)c1O`, in test [1], the Activity stood at 123%. Also, the IC50 in test [2] is less than 1 µM. The ID50 in test [3] is 50 µM.

As for `COc1cc([C@@H]2c3cc4c(cc3[C@@H](Oc3ccc(F)cc3)[C@H]3COC(=O)[C@H]23)OCO4)cc(OC)c1O`, in test [1], the Activity turned out to be 57%. In addition, the IC50 in test [2] was determined as 0.5 µM. In addition, in test [3], the ID50 is more than 100 µM.

On to `COc1cc([C@@H]2c3cc4c(cc3[C@@H](Nc3ccc([N+](=O)[O-])cc3)[C@H]3COC(=O)[C@H]23)OCO4)cc(OC)c1O`, for which the Activity in test [1] is 323%. For the same compound, the IC50 in test [2] was 0.5 µM. The compound further yielded an ID50 in test [3] of 10 µM.

With `COc1cc([C@@H]2c3cc4c(cc3[C@@H](O[C@@H]3O[C@@H]5CO[C@@H](C)O[C@H]5[C@H](O)[C@H]3O)[C@H]3COC(=O)[C@H]23)OCO4)cc(OC)c1O` [ETOPOSIDE], the Activity in test [1] came out at 100%. In addition, the Ratio in test [4] is 30.

Consider `COC(=O)c1ccc(N[C@@H]2c3cc4c(cc3[C@@H](c3cc(OC)c(O)c(OC)c3)[C@H]3C(=O)OC[C@@H]32)OCO4)cc1O`, for which the Activity in test [1] was found to be 129%. Besides, the IC50 in test [2] was 5.8 µM. Besides, the ID50 in test [3] was 50 µM.

Turning to `COC(=O)c1cccc(N[C@@H]2c3cc4c(cc3[C@@H](c3cc(OC)c(O)c(OC)c3)[C@H]3C(=O)OC[C@@H]32)OCO4)c1`, the Activity in test [1] turned out to be 129%. Also, in test [2], the IC50 worked out at 2.7 µM. Also, the ID50 in test [3] amounted to 50 µM.

The record behind these values is ChEMBL document CHEMBL1149733, “Antitumor agents, 130, Novel 4 beta-arylamino derivatives of 3',4'-didemethoxy-3',4'-dioxo-4-deoxypodophyllotoxin as potent inhibitors of human DNA topoisomerase II” (1992).
